According to patent publication US9801873B2, “Methods for treating humans having brain cancer” (priority 2008, dated 2017):
Like-named read-outs stand apart in the source and are kept apart here.

Experiments:
[1] = Phase 1 trial: plasma pharmacokinetics by LC-MS/MS and population PK model (SN-38 exposure and half-life); details: plasma analyte after administration of Compound I
Experimental: Tumor responses were evaluated according to RECIST (Response Evaluation Criteria in Solid Tumors) criteria.

A2780 ovarian tumors = details: for activity in A2780 ovarian tumor model: 3 weekly intra-peritoneal administrations; for tumor growth delay (TGD): 3 weekly intravenous injections
Experimental: Anti-tumor efficacy was evaluated based on tumor growth delay (TGD) in mice and response rate in mice and humans.
Animals were weighed and monitored twice weekly, and tumor volumes were measured until an endpoint was met (2000 mm^3 or 60 days). Anti-tumor efficacy was evaluated based on tumor growth delay and response rate or partial or complete regression (PR or CR). In a PR, the tumor volume was 50% or less of its Day 1 volume for three consecutive measurements, and equal to or greater than 14 mm^3 for one or more of these three measurements. In a CR, the tumor volume was less than 14 mm^3 for three consecutive measurements. An animal with a CR response at termination was additionally classified as tumor-free survivior (TFS). A Student's T-test was performed to calculate statistical significance (p<0.05).

[2] = cited from earlier work

## CCc1c2c(nc3ccc(O)cc13)-c1cc3c(c(=O)n1C2)COC(=O)[C@]3(O)CC [SN-38, 7-ethyl-10-hydroxy camptothecin]
[1]
  T1/2 λz, In Responding Patients (range): 14.4 to 98.3 days
  T1/2 λz, Population Estimate in Responding Patients: 49.1 days

## N.N.O=C([O-])C1(C(=O)[O-])CCC1.[Pt+2] [carboplatin]
A2780 ovarian tumors
  activity in A2780 ovarian tumor model: inactive

## N.N.[Cl][Pt][Cl] [cisplatin]
A2780 ovarian tumors
  activity in A2780 ovarian tumor model: inactive

## CCc1c2c(nc3ccc(OC(=O)N4CCC(N5CCCCC5)CC4)cc13)-c1cc3c(c(=O)n1C2)COC(=O)[C@]3(O)CC [irinotecan]
A2780 ovarian tumors; 50 mg/kg
  tumor growth delay (TGD): 12 days
A2780 ovarian tumors; 100 mg/kg
  tumor growth delay (TGD): 15 days
A2780 ovarian tumors; 150 mg/kg
  tumor growth delay (TGD): 16 days
A2780 ovarian tumors; 3 weekly intravenous doses of 50, 100, or 150 mg/kg
  tolerability in mice: acute effects immediately after dosing (tremors, hypoactivity, ataxia, pilo-erection, increased stool production)
A2780 ovarian tumors; highest dose (150 mg/kg), n=10
  partial responses (PR): one partial response (PR)
[2]; higher doses (2.8, 4.6 mg/m^2 per day), dosing period of 63 days
  SN-38 plasma levels: 2 to 4 ng/mL
[2]; lowest dose (1.4 mg/m^2 per day continuous iv infusion), up to 63 days
  SN-38 plasma levels: around 1 ng/ml
